Laboratory results taken from patent publication US20260335293A1, “USE OF NOVEL COMPOUND FOR TREATING INTRACTABLE DISEASES” (YJ CERAPEUTICS INC., priority 2023, published 2026).

What was measured:
Occludin = experiment: Tight junction protein Occludin in bladder of SCI model, Western blot and immunofluorescence; assay type: in vivo, Sprague-Dawley rats
[1] = tested on: inflammatory cytokines and chemokines in bladder tissue; experiment: Inflammatory factor expression in bladder of SCI model, RT-PCR and Western blot; assay type: in vivo, Sprague-Dawley rats; conditions: bladder after SCI
Procedure: In order to confirm the effect of YJ102 (Chemical Formula 1), a compound of the present disclosure, on urinary disturbances caused by spinal cord injury, immediately after preparing the traumatic spinal cord injury (SCI) model (FIG. 1A) prepared in Example 1 above, YJ102 was dissolved in DMSO, methyl pyrrolidinone, and water (1:1.5:1) and administered intraperitoneally at 5 mg/kg, and then intraperitoneally administered at 24-hour intervals for 7 days from the next day. Thereafter, the effect of improving bladder functions was analyzed through a residual urine volume test and a urinary bladder function score (UBFS). At this time, a Vehicle group was administered with the same amount of a solution of DMSO, methyl pyrrolidinone, and water. Specifically, in order to determine the amount of urine remaining in the bladder after spinal cord injury, bladder extrusion was performed twice a day by applying pressure to the central bottom portion of the lower abdomen using the index and middle fingers to empty the bladder, and the expelled urine was collected in a catheter and its volume was recorded. In addition, the UBFS was assessed daily using a 0-4 point UBFS (0=total loss of function (manual bladder extrusion 3 times a day, bloody urine), 1=partial restoration of UBF (manual extrusion 2 times a day, bloody urine), 2=partial restoration of UBF (partial/complete release of sphincter spasm, manual extrusion once a day, persistently bloody urine), 3=high restoration (manual extrusion once a day, no bloody urine), and 4=normal UBF) as in the reference (Zeng et al., Spinal Cord (2017) 55:834-839).
To confirm the effect of YJ102 on the expression of inflammatory factors in the bladder after spinal cord injury, the expression of inflammatory cytokines and chemokines, COX-2, iNOS, IL-6, IL-1β, MIP-1α, MIP-1β, MIP-2a, and Gro-α in bladder tissue was confirmed by RT-PCR analysis and Western blot analysis using the primers in Table 2 above. In addition, even in the Raw 264.7 cell line, the expression was verified by RT-PCR analysis.

[2] = tested on: skin tissue of psoriasis mouse model; experiment: Epidermal layer thickness and dermal cell introduction (H&E) in IMQ psoriasis model; assay type: in vivo, C57BL/6 mouse; conditions: 5 mg/kg i.p. Days 2-4, Day 6
Procedure: Psoriasis caused by excessive production of skin cells was a chronic skin disease associated with various factors, including autoimmune diseases, and its symptoms included red and thickened skin and abnormally occurring scaling. […] Specifically, the back region of a C57BL/6 mouse (male, 18 to 20 g, 8 weeks) (Daehan Biolink, Eumseong, Korea) was shaved to remove hair, and then applied with IMQ cream (83 mg/day) (5%) for consecutive 5 days from Day 0 to Day 4 to induce psoriasis-like skin inflammation, and a normal control mouse (Sham) was applied with Vaseline cream (FIG. 16A).
In order to confirm the effect of YJ102 (Chemical Formula 1), a compound of the present disclosure, on psoriasis, YJ102 dissolved in DMSO, methyl pyrrolidinone, and water (1:1.5:1) was administered intraperitoneally (5 mg/kg) for a total of 3 days on Day 2, Day 3, and Day 4, and the Vehicle group was administered in the same amount of a solution of DMSO, methyl pyrrolidinone, and water (1:1.5:1) (FIG. 16A). To assess daily skin changes, PASI scores were used for erythema and scaling. The PASI score was evaluated as a severity scale of 0 to 4, in which 0 meant none, 1 meant mild, 2 meant moderate, 3 meant severe, and 4 meant very severe. […]
On day 6, the skin tissue of the psoriasis mouse model was stained with Hematoxyline & Eosin, and the epidermal layer thickness was measured. […]

[3] = tested on: urothelium (TUNEL-positive cells); experiment: Urothelial cell apoptosis in SCI model, TUNEL staining; assay type: in vivo, Sprague-Dawley rats; conditions: day 3 after SCI; vs Vehicle
microglia (OX-42) = experiment: Microglial activation in spinal cord of SNI model, OX-42 staining; assay type: in vivo, Sprague-Dawley rats; conditions: spinal cord L4-L5, 4 weeks after nerve injury
Procedure: To be used as a peripheral nerve injury animal model, a sciatic nerve injury (SNI) model was prepared (FIG. 1C). Specifically, 200 to 220 g of male adult Sprague-Dawley rats were anesthetized by intraperitoneal injection of chloral hydrate (500 mg/kg), and then three terminal branches (tibial, common peroneal, and sural nerves) of the right sciatic nerve were approached, and the tibia nerve and the peroneal nerve were tightly ligated with 4-0 silk, and neurectomy was performed at a distal 3 mm position of the ligation site. At this time, a Sham group was a group that exposed only the sciatic nerve without damage.
To analyze the activation of microglia in the spinal cord, which were known to play an important role in the induction/persistence of neuropathic pain, 4 weeks after nerve injury in the SNI animal model, the spinal cord of 4 and 5 lumbar vertebrae was stained with OX-42 to confirm changes in cell shape and intensity. […] The supernatant was transferred to a new microcentrifuge, the protein concentration was measured using a BCA kit, and samples for Western blot were prepared by adding a 1× sample buffer and boiling for 5 minutes. […]

CCc1ccc(N(C(=O)COC)c2nc3cc(Cl)ccc3o2)cc1 [YJ102]
reduction in amount of Occludin (Occludin; SCI day 1, Western blot): significantly inhibited | reduction in Occludin in the urothelium (Occludin; after SCI, immunofluorescence): inhibited | expression of COX-2 [1]: significantly reduced | expression of Gro-α [1]: significantly reduced | expression of IL-1β [1]: significantly reduced | expression of IL-6 [1]: significantly reduced | expression of MIP-1B [1]: significantly reduced | expression of MIP-1 a [1]: significantly reduced | expression of MIP-2a [1]: significantly reduced | expression of iNOS [1]: significantly reduced | number of cells introduced into the dermal layer [2]: decreased to the Sham level | reduction of epidermal layer thickness compared to Vehicle group [2]: approximately 35% | number of TUNEL-positive cells in the urothelium [3]: significantly reduced | microglia activation changes (OX-42 intensity) (microglia (OX-42)): significantly reduced
